Publication PMC6803969, “Pharmacokinetic Profiling and Simultaneous Determination of Thiopurine Immunosuppressants and Folic Acid by Chromatographic Methods” (Molecules, 2019)

Assays:
[1] = RP-TLC hydrophobicity assay (RP-18 plates, methanol/phosphate-buffered saline); format: physicochemical; conditions: extrapolated to pure phosphate-buffered saline
Procedure: In reversed-phase chromatography, retention of analytes is governed by hydrophobicity, and this parameter was evaluated using both TLC and HPLC techniques. Due to high affinity of investigated compounds for octadecylsilane chemically bonded to porous silica applied on chromatographic plates, several analyses with mixtures of phosphate-buffered saline with various concentrations of methanol as mobile phase were performed. […] RM values were obtained according to Equation (1):(1) RM=log(1/RF−1), where RF represents the retention factor. Furthermore, chromatographic parameter of hydrophobicity, RMw, was obtained by extrapolation to pure buffer using the linear Equation (2):(2) RM = RMw − SΦ, where S is the slope of the regression line and φ is the concentration (expressed as volume fraction) of methanol.
TLC experiments were performed on commercially available 10 × 10 cm RP-18 TLC plates (Merck, Darmstadt, Germany). Methanol-phosphate-buffered saline mixtures were used as mobile phases. The methanol volume fraction was varied from 20% to 80% in 5% steps. A sufficient amount of mobile phase was placed in a Camag flat-bottom chamber for 10 × 10 cm plates with a stainless-steel lid to have a level of 5 mm. After saturation of chambers with solvent vapor for 30 min, the plates were developed to a distance of 9 cm at room temperature, dried in open air for 5 min and visualized under λ = 254 nm UV light.

[2] = RP-HPLC hydrophobicity assay (Symmetry C18 column, methanol/phosphate-buffered saline); format: physicochemical; conditions: extrapolated to pure phosphate-buffered saline, 25 °C
Excerpt: The obtained retention times, tR, were used to calculate log k values according to Equation (3): (3) logk=logtR−t0/t0, with t0 being the retention time of an unretained solute, sodium nitrate. Furthermore, chromatographic parameter of hydrophobicity, log kw C18, was obtained by extrapolation to pure buffer using the linear Equation (4):(4) logk = logkw − SΦ, where S is the slope of the regression line and φ is the concentration (expressed as volume fraction) of methanol.
Hydrophobicity of the compounds was also studied on a reversed-phase Symmetry C18 column (150 × 4.6 mm, 3.5 µm particle size) obtained by Waters (Milford, MA, USA). Methanol-phosphate-buffered saline mixtures were used as mobile phases. The methanol volume fraction was varied from 10% to 50% in 5% steps. Each mobile phase was shaken vigorously, filtrated through cellulose nitrate filter (0.45 μm, Sartorius, Goettingen, Germany) and degassed by sonication (5 min) before use.

[3] = Phospholipid binding assay (IAM-HPLC, IAM.PC.DD2 column); format: physicochemical; conditions: for log kw IAM, chromatographic parameter of lipophilicity obtained by IAM-HPLC: phosphate-buffered saline pH 7.4 without organic modifier, 25 °C
Procedure: The binding of compounds to the immobilized artificial membrane (IAM) was measured using commercially available immobilized phosphatidylcholine columns (IAM.PC.DD2, 100 x 4.6 mm, […]) obtained by Regis Technologies (Morton Grove, IL, USA). The mobile phase consisted of phosphate-buffered saline that was filtrated through cellulose nitrate filter and degassed (5 min) by sonication before use.

[4] = system: α1-acid glycoprotein (AGP); experiment: Protein binding assay, AGP-HPLC (Chiralpak-AGP column); conditions: phosphate buffer pH 7.0/iso-propanol gradient, 25 °C
Procedure: (§1) In this study, the gradient retention times are standardized using a calibration set of compounds with known percentage of plasma protein binding data (PPBlit).
(§2) Validation of the methods was performed by evaluation of retention of warfarin enantiomers. As retention time on HSA and AGP columns is dependent on the injected amount of compound, the smallest possible amount of sample was injected so that the compound would not saturate the specific binding site.
(§3) The interactions of analytes with plasma proteins human serum albumin (HSA) and α1-acid glycoprotein (AGP) have been measured using commercially available chemically bonded HSA (Chiralpak-HSA, 50 × 4.6 mm, 5 μm particle size) and AGP (Chiralpak-AGP, 50 × 4.6 mm, 5 μm particle size) columns obtained by ChromTech (Cedex, France). The mobile phase consisted of 20 mM potassium phosphate buffer with the pH adjusted to 7.0 (A) and iso-propanol (B). The gradient program was as follows: 0–3 min, linear gradient 0–30% B, 3–10 min, isocratic 30% B. The total run time was 15 min to allow re-equilibration of the protein phase with the buffer. Injection volume was set at 10 µL, and the measurements were carried out at 25.0 ± 0.1 °C and at flow rate 1.5 mL/min. The absorbance of the analytes during a chromatographic run was collected at the following wavelengths: 250, 280, 300, 320 and 340 nm.

[5] = target: human serum albumin (HSA) (Homo sapiens, UniProt P02768); experiment: Protein binding assay, HSA-HPLC (Chiralpak-HSA column); format: in vitro ADME; conditions: phosphate buffer pH 7.0/iso-propanol gradient, 25 °C
Procedure: as §1, §2, §3

[6] = higher levels of NaOH than 0.02 M (0.05 M and 0.1 M)
[7] = Extraction solvent evaluation / solubility; format: physicochemical
Procedure: Protocols utilizing aqueous or organic solvent extraction solutions (acidic, alkaline or neutral pH) combined with at ambient and elevated temperatures shaking and sonication procedures have all been reported. Therefore, one-variable-at-a-time method was applied to find a ubiquitous method suitable for all investigated analytes. […] Folic acid in solution is known to decompose when exposed to ultraviolet light and/or increased temperature; thus, all experiments were performed at ambient temperature using amber laboratory glassware.

Chain of human serum albumin (HSA) (P02768 25-609): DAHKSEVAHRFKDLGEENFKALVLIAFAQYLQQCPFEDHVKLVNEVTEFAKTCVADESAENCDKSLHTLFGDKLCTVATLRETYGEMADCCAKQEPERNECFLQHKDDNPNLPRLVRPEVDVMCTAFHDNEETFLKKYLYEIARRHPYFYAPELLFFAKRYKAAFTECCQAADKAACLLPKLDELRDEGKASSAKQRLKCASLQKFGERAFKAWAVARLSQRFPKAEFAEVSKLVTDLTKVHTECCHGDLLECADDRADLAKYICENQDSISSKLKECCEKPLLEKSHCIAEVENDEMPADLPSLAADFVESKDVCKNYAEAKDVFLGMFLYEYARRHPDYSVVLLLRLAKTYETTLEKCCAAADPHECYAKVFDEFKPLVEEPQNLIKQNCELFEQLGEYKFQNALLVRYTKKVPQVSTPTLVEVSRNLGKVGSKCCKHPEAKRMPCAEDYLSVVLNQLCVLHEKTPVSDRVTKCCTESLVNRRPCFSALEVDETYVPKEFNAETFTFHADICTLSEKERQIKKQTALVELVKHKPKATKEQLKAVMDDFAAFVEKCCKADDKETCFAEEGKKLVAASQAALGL

SMILES	RMw, chromatographic parameter of hydrophobicity obtained by RP-TLC [1]	log kw C18, chromatographic parameter of hydrophobicity obtained by RP-HPLC [2]	log kw IAM, chromatographic parameter of lipophilicity obtained by IAM-HPLC [3]	PPBAGP, percentage of analyte bound to α1-acid glycoprotein (AGP) obtained by AGP-HPLC [4] [%]	PPBHSA, percentage of analyte bound to human serum albumin (HSA) obtained by HSA-HPLC [5] [%]	stability in NaOH extraction solution [6]	difference between log kw C18 and log kw IAM values [3]	solubility ([7]; in basic aqueous solutions)	extraction efficiency ([7]; in methanol) [%]	solubility ([7]; in organic solvents as well as in water)	extraction efficiency ([7]; in water) [%]
Sc1ncnc2nc[nH]c12 [6-mercaptopurine]	0.23	0.45	−0.19	22.15	–	–	–	–	–	–	–
Nc1nc2nc[nH]c2c(=S)[nH]1 [6-thioguanine]	0.21	0.32	0.03	45.96	24.11	–	–	–	–	–	–
Cn1cnc([N+](=O)[O-])c1Sc1ncnc2nc[nH]c12 [Azathioprine, azathioprine]	1.41	1.34	0.68	75.96	49.22	degradation	–	–	–	–	–
Nc1nc2ncc(CNc3ccc(C(=O)N[C@@H](CCC(=O)O)C(=O)O)cc3)nc2c(=O)[nH]1 [Folic acid, folic acid]	0.57	0.99	−0.26	3.45	69.40	–	1.25	soluble in basic aqueous solutions	4.6	slightly soluble	22.4
